Measurements as given in patent US20250127840A1, “METHOD FOR ACTIVATING DENDRITIC CELLS AND METHOD FOR ACTIVATING NATURAL KILLER CELLS, HELPER T CELLS, KILLER T CELLS, B CELLS, OR MACROPHAGES” (TOYO SHINYAKU CO., LTD., priority 2023, published 2025).

Columns and labels:
NK cells = experiment: Test 3 NK cell cytotoxicity of spleen cells against calcein-stained YAC-1 target cells; assay type: cell-based, mouse; conditions: test substance 1 μg/mL, 18 hours, then YAC-1 target cells 4 hours, control set to 1
Method: After dissection of a C57BL/6J mouse (8 weeks old), spleen cells were isolated, and a cell suspension prepared by dilution in a 10% fetal bovine serum-RPMI 1640 medium was seeded at 100 µL/well so that the cells were seeded at 5×10^6 cells/well in a 96-well plate. To the seeded cells, a medium (0.5% DMSO-10% fetal bovine serum-RPMI 1640 medium) prepared to have a total concentration of test substances of 1 μg/mL (for young barley leaf juice powder, the concentration of young barley leaf juice ingredient excluding dextrin was 1 μg/mL) was added at 100 μL/well, and the resultant was cultured for 18 hours in a 5% CO2 incubator (“CO2 Incubator” manufactured by ASTEC) at 37° C.
After culture, the plate was centrifuged (at 1,000 rpm for 10 minutes) using a centrifuge. 150 μL of the supernatant was removed, and 150 μL of 1% BSA-RPMI 1640 was added. This process was repeated once more. After that, YAC-1 cells (stained with calcein) sensitive to NK cells were added as target cells, and the resultant was cultured for 4 hours.
After culture, the plate was centrifuged (at 1,000 rpm for 10 minutes) using a centrifuge, and the supernatant was collected in a 96-well black plate. The collected supernatant was measured for fluorescence intensity (at an excitation wavelength of 490 nm and a fluorescence wavelength of 515 nm) using a microplate reader (“SpectraMax i3x” manufactured by Molecular Devices), and the NK cell cytotoxicity was evaluated.
The NK cell cytotoxicity (relative value) is shown in Table 5 with the value of the control set to 1. A higher relative value of NK cell cytotoxicity indicates greater activation of NK cells. […] Even if dietary fiber (cellulose), Vitamin D, or Spirulina, which are known to have immune-stimulating effects, was added, the NK cells were not activated.

[1] = test system: bone marrow-derived dendritic cells (including both cDCs and pDCs); experiment: Test 1 (A) TNF-α gene expression in bone marrow-derived dendritic cells (real-time PCR); assay type: cell-based, mouse; conditions: test substance 10 μg/mL, 72 hours; TNF-α/β-actin, control with no test substance set to 1
Method: After dissection of a C57BL/6J mouse (8 weeks old), bone marrow mononuclear cells were sampled from the femur and tibia, and cultured using a differentiation induction medium (RPMI 1640 medium containing 10% fetal bovine serum, 100 μM of 2-mercaptoethanol, and 100 ng/ml of Flt3 ligand). […] After the medium was removed from each well, 100 μL of a differentiation induction medium containing 0.5% DMSO, which was prepared so that a total concentration of the test substances was 10 μg/mL (for young barley leaf juice powder, the concentration of young barley leaf juice ingredient excluding dextrin was 10 μg/mL), was added to each well and cultured for 72 hours. After that, the medium was removed from each well, and RNA was collected using the RNeasy Mini Kit (manufactured by QIAGEN). From the obtained RNA, a gene expression level (mRNA expression level) of TNF-α was measured by the real-time PCR method using the One Step TB Green® PrimeScript™ RT-PCR Kit II <Perfect Real Time> (manufactured by TaKaRa). For a primer, Mm_Il12B_1_SG QuantiTect Primer Assay and Mm_Tnf1_SG QuantiTect Primer Assay (manufactured by QIAGEN) were used.

Molecule	NK cell cytotoxicity (relative value) (NK cells)	NK cell cytotoxicity (relative value) (NK cells; listed as Comparative Example 5)	NK cell cytotoxicity (relative value) (NK cells; listed as Comparative Example 4)	TNF-α gene expression level (relative value) [1]
C=C1CC[C@H](O)C/C1=C/C=C1\CCC[C@]2(C)[C@@H]([C@H](C)CCCC(C)C)CC[C@@H]12 [compound 2, Vitamin D3]	not activated	0.93	–	–
Cellulose [compound 1]	not activated	–	1.05	–
β-glucan [compound 3]	1.04	–	–	1.17
